# Literature values, collected in patent US4339582A (priority 1981, dated 1982).
# Settings: literature, J. Med. Chem. 18, 1126-30 (1975)
structure (smiles),measurement,value
c1ccc(C2CCC3CCCCN3C2)cc1 (stereo not shown),reported activity,antidepressant activity
